Reference: patent US20250295639A1, “METHODS FOR TREATING HEART DISEASES” (Cytokinetics, Incorporated, priority 2024, published 2025)

System: patients with symptomatic oHCM
Test: SEQUOIA-HCM cardiovascular magnetic resonance (CMR) substudy
Type: in vivo, human
Excerpt: A further exploratory objective of this trial was to evaluate the effect of aficamten on left ventricular mass, function, and structure by cardiac magnetic resonance (CMR) imaging, as determined by changes from baseline to Week 24 in CMR measurements of left ventricular (LV) mass index, LVEF, septal and free wall thickness, left […] volume index, LVESV, and LVEDV. Cardiac Magnetic Resonance. A CMR imaging sub-study assessed the effects of administration of aficamten dosing on cardiac morphology, function, and fibrosis in approximately 40 oHCM patients who were eligible and consented to participate. CMR was performed during screening period and Week 24. […] Effect of Aficamten on Cardiac Structure and Function in Patients with Obstructive Hypertrophic Cardiomyopathy. For some patients with HCM, adverse remodeling of cardiac structure and function occur over time and are associated with increased risk of adverse events, including heart failure, sudden death and atrial fibrillation. Eligible participants enrolled in SEQUOIA-HCM (the study of Example 8), were offered enrolment in the cardiovascular magnetic resonance (CMR) substudy with CMR performed at baseline and at Week 24. Image analysis was performed in a blinded fashion by a core laboratory.

[1] = CMR Cohort N = 57 (Aficamten N = 25), Baseline
[2] = CMR Cohort N = 57 (Aficamten N = 25), Week 24
[3] = CMR Measurements, CMR Cohort N = 57 (Aficamten N = 25), Baseline
[4] = CMR Measurements, CMR Cohort N = 57 (Aficamten N = 25), Week 24
[5] = CMR Measurements, CMR Cohort N = 57, vs placebo
[6] = Echo Measurements, CMR Cohort N = 57 (Aficamten N = 25), Baseline
[7] = Echo Measurements, CMR Cohort N = 57 (Aficamten N = 25), Week 24
[8] = Echo Measurements, CMR Cohort N = 57, vs placebo
[9] = baseline to week 24, vs placebo

## CCc1nc(-c2ccc3c(c2)CC[C@H]3NC(=O)c2cnn(C)c2)no1 [aficamten, (R)—N-(5-(5-ethyl-1,2,4-oxadiazol-3-yl)-2,3-dihydro-1H-inden-1-yl)-1-methyl-1H-pyrazole-4-carboxamide]
Baseline, N = 21
  LGE (% of LV mass) (CMR): 2.0 % of LV mass
  LGE Mass (CMR): 3.2 g
  Mitral Regurgitation Fraction (CMR): 24%
  Mitral Regurgitation Volume (CMR): 22 mL
  NT-proBNP, median: 708 pg/mL
  NYHA Class II, patients: 67%
  NYHA Class III, patients: 33%
Baseline, N = 21, mean ± SD
  Absolute myocyte mass index (CMR): 84 ± 25 g/m^2
  Echo LVOT Gradient at Rest: 55 ± 32 mm Hg
  Echo LVOT Gradient with Valsalva: 85 ± 45 mm Hg
  LA Volume Index (CMR): 68 ± 19 mL/m^2
  LV Ejection Fraction (CMR): 77.4 ± 5.6%
  LV End Diastolic Volume Index (CMR): 67 ± 15 mL/m^2
  LV End Systolic Volume Index (CMR): 15.3 ± 5.9 mL/m^2
  LV Extracellular Volume Fraction (CMR): 26.7 ± 2.7%
  LV Mass Index (CMR): 113 ± 33 g/m^2
  LV Maximal Wall Thickness (CMR): 19.3 ± 4.3 mm
  LV Native T1 (CMR): 1066 ± 121 ms
  LV extracellular volume mass index (CMR): 31 ± 10 %/g/m^2
  Peak oxygen consumption, pVO2: 20.1 ± 4.4 mL/kg/min
[1]
  NT-proBNP, median: 708 pg/mL
  Peak oxygen consumption, pVO2: 19.8 ± 4.7 mL/kg/min
[2]
  Improvement in NYHA by ≥1 FC, n (%): 15 (60.0) n (%)
  NT-proBNP, median: 81 pg/mL
  Peak oxygen consumption, pVO2: 21.0 ± 4.9 mL/kg/min
CMR Cohort N = 57, Week 24, vs placebo
  Improvement in NYHA by ≥1 FC, Treatment Effect, OR: OR 3.00
CMR Cohort N = 57, vs placebo
  NT-proBNP, Treatment Effect: -85 pg/mL
  Peak oxygen consumption, pVO2, Treatment Effect: 1.2 mL/kg/min
[3]
  LA Volume Index: 68 ± 19 mL/m^2
  LV Ejection Fraction: 77.4 ± 5.6%
  LV Mass Index: 113 ± 33 g/m^2
  LV Maximal Wall Thickness: 19.3 ± 4.3 mm
[4]
  LA Volume Index: 52 ± 14 mL/m^2
  LV Ejection Fraction: 73.8 ± 5.9%
  LV Mass Index: 103 ± 28 g/m^2
  LV Maximal Wall Thickness: 17.8 ± 4.5 mm
[5]
  LA Volume Index, Treatment Effect: −13 mL/m^2
  LV Ejection Fraction, Treatment Effect: −2.6%
  LV Mass Index, Treatment Effect: −15 g/m^2
  LV Maximal Wall Thickness, Treatment Effect: −2.1 mm
CMR substudy patients, Week 24
  NT-proBNP, change relative to placebo: −85%
  echocardiographic Valsalva LVOT-G, Δ least squares mean relative to placebo: −50 mm Hg
  echocardiographic resting LVOT-G, Δ least squares mean relative to placebo: −46 mm Hg
[6]
  LA Volume Index: 40 ± 11 mL/m^2
  LV Ejection Fraction: 74.3 ± 4.7%
  LV Mass Index: 126 ± 22 g/m2
  LV Maximal Wall Thickness: 20.6 ± 2.7 mm
  LVOT gradient at rest: 55 ± 30 mmHg
  LVOT gradient with Valsalva: 84 ± 42 mmHg
[7]
  LA Volume Index: 39 ± 10 mL/m^2
  LV Ejection Fraction: 68.2 ± 7.8%
  LV Maximal Wall Thickness: 18.7 ± 3.1 mm
  LVOT gradient at rest: 25 ± 25 mmHg
  LVOT gradient with Valsalva: 38 ± 30 mmHg
[8]
  LA Volume Index, Treatment Effect: −1 mL/m^2
  LV Ejection Fraction, Treatment Effect: −3.6%
  LV Mass Index, Treatment Effect: −10 g/m2
  LV Maximal Wall Thickness, Treatment Effect: −1.5 mm
  LVOT gradient at rest, Treatment Effect: −38 mmHg
  LVOT gradient with Valsalva, Treatment Effect: −47 mmHg
Week 24
  CMR LV end-diastolic and end-systolic volumes: no significant change
  CMR LV mass index, Δ least squares mean relative to placebo: −15 g/m^2
  CMR left atrial volume index, Δ least squares mean relative to placebo: −13 mL/m^2
  CMR maximal LV wall thickness, Δ least squares mean relative to placebo: −2.1 mm
  CMR native Tl relaxation time, Δ least squares mean relative to placebo: -37 ms
  LV extracellular volume fraction [ECV]: 0.7%
  LV replacement fibrosis, late gadolinium enhancement [LGE] mass: -0.7 g
Week 24, N = 21
  LGE (% of LV mass) (CMR): 1.4 % of LV mass
  LGE Mass (CMR): 1.5 g
  Mitral Regurgitation Fraction (CMR): 13%
  Mitral Regurgitation Volume (CMR): 12 mL
  NT-proBNP, median: 79 pg/mL
  NYHA Class I, patients: 57%
  NYHA Class II, patients: 29%
  NYHA Class III, patients: 14%
Week 24, N = 21, mean ± SD
  Absolute myocyte mass index (CMR): 75 ± 22 g/m^2
  Echo LVOT Gradient at Rest: 21 ± 18 mm Hg
  Echo LVOT Gradient with Valsalva: 35 ± 26 mm Hg
  LA Volume Index (CMR): 52 ± 14 mL/m^2
  LV Ejection Fraction (CMR): 73.8 ± 5.9%
  LV End Diastolic Volume Index (CMR): 60 ± 11 mL/m^2
  LV End Systolic Volume Index (CMR): 16.0 ± 5.1 mL/m^2
  LV Extracellular Volume Fraction (CMR): 27.4 ± 7.1%
  LV Mass Index (CMR): 103 ± 28 g/m^2
  LV Maximal Wall Thickness (CMR): 17.8 ± 4.5 mm
  LV Native T1 (CMR): 1021 ± 93 ms
  LV extracellular volume mass index (CMR): 29 ± 12 %/g/m^2
  Peak oxygen consumption, pVO2: 21.1 ± 4.7 mL/kg/min
[9]
  Absolute myocyte mass index (CMR), Treatment Effect (95% CI): −14 (−23, −4) g/m^2
  Echo LVOT Gradient at Rest, Treatment Effect: −46 mm Hg
  Echo LVOT Gradient with Valsalva, Treatment Effect: −50 mm Hg
  LA Volume Index (CMR), Treatment Effect: −13 mL/m^2
  LGE (% of LV mass) (CMR), Treatment Effect (95% CI): −0.4 (−2.1, 1.2) % of LV mass
  LGE Mass (CMR), Treatment Effect (95% CI): −0.7 (−2.9, 1.6) g
  LV Ejection Fraction (CMR), Treatment Effect: −2.6%
  LV End Diastolic Volume Index (CMR), Treatment Effect: −1 mL/m^2
  LV End Systolic Volume Index (CMR), Treatment Effect: 1.4 mL/m^2
  LV Extracellular Volume Fraction (CMR), Treatment Effect (95% CI): 0.7 (−2.2, 3.6) %
  LV Mass Index (CMR), Treatment Effect: −15 g/m^2
  LV Maximal Wall Thickness (CMR), Treatment Effect: −2.1 mm
  LV Native T1 (CMR), Treatment Effect (95% CI): −37 (−69, −5) ms
  LV extracellular volume mass index (CMR), Treatment Effect: −3.9 %/g/m^2
  Mitral Regurgitation Fraction (CMR), Treatment Effect: −6%
  Mitral Regurgitation Volume (CMR), Treatment Effect: -7 mL
  NT-proBNP, Treatment Effect: −85%
  Peak oxygen consumption, pVO2, Treatment Effect: 1.0 mL/kg/min
  Treatment Effect ≥1 NYHA Class Improvement: 36%
